Results taken from patent US20230382894A1, “CCR4 ANTAGONISTS” (CHEMOCENTRYX, INC., priority 2022, published 2023).

Assays:
CCR4 [1] = biological target: T1, CCR4 (Homo sapiens, UniProt P51679); assay: CEM cell chemotaxis (migration) assay to CCL22 (MDC) in HBSS buffer with 0.1% BSA; assay type: cell-based; settings: CEM cells in HBSS with 0.1% BSA; recombinant human CCL22 0.1 nM; 37° C. 60 minutes
T1 construct: CEM Cells Endogenous Express CCR4; endogenous in cells; host or cells: CEM cells
T1 sequence (P51679 1-360): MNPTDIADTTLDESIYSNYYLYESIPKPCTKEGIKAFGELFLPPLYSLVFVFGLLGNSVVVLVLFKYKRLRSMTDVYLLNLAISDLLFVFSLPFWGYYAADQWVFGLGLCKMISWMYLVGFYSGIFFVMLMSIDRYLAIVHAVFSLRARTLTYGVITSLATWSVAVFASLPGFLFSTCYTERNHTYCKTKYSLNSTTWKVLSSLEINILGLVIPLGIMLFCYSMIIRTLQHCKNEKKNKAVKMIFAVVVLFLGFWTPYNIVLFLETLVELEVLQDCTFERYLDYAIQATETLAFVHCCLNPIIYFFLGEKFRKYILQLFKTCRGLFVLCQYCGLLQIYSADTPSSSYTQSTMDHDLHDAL
Source text: CEM Cells Endogenous Express CCR4
A chemotaxis assay can be used to determine the efficacy of potential receptor antagonists at blocking the migration mediated through chemokine receptors, such as CCR4. This assay is routinely performed using the ChemoTX® microchamber system with a 5 μm pore-sized polycarbonate membrane.
HBSS: CEM Cells are collected by centrifugation at 400×g at room temperature, then suspended at 5 million/ml in Hanks' Balanced Salt Solution (HBSS) buffer with 0.1% BSA. The compound being tested is serially diluted from a maximum final concentration of 10 μM (or an equivalent volume of its solvent (DMSO)) and is then added to the cell/buffer mixture. Separately, recombinant human CCL22 (MDC) at its EC50 concentration (0.1 nM) is placed in the lower wells of the ChemoTX® plate. The 5-μm (pore size) polycarbonate membrane was placed onto the plate, and 20 μL of the cell/compound mixture is transferred onto each well of the membrane. The plates are incubated at 37° C. for 60 minutes, after which the polycarbonate membranes are removed and 5 μl of the DNA-intercalating dye CyQUANT (Invitrogen, Carlsbad, CA) is added to the lower wells. The amount of fluorescence, corresponding to the number of migrated cells, is measured using a Spectrafluor Plus plate reader (TECAN, San Jose, CA).

CCR4 [2] = biological target: T1, CCR4; assay: CEM cell chemotaxis (migration) assay to CCL22 (MDC) in 100% Fetal Bovine Serum (FBS); assay type: cell-based; settings: CEM cells in 100% FBS with 1% HEPEs; recombinant human CCL22 0.1 nM; 37° C. 60 minutes
Method in brief: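 Endogenously CCR4-expressing CEM cells in 100% FBS with 1% HEPES were preincubated with serially diluted compound (top final 10 μM) and allowed to migrate through 5 μm polycarbonate membranes toward 0.1 nM human CCL22 (EC50) for 60 min at 37 °C. Migrated cells were quantified by CyQUANT fluorescence.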

Row | Compound | IC50 (CCR4 [1]) [nM] | IC50 (CCR4 [2]) [nM]
1 | C[C@@H](Nc1nc(N2CCN(C(=O)[C@H]3CCCN3C(=O)OC(C)(C)C)CC2)ncc1Cl)c1ccc(Cl)cc1Cl [Example 1.051] | 100 to 1000 | 100 to 1000
2 | C[C@@H](Nc1nc(N2CCN(C(=O)[C@@H]3CCCN3)CC2)ncc1Cl)c1ccc(Cl)cc1Cl [Example 1.052] | < 100 | < 100
3 | C[C@@H](Nc1nc(N2CCN(C(=O)[C@H]3CCCN3)CC2)ncc1Cl)c1ccc(Cl)cc1Cl [Example 1.053] | < 100 | < 100
4 | C[C@@H](Nc1nc(N2CCN(C3CCCN(CCC(=O)O)C3)CC2)ncc1Cl)c1ccc(Cl)cc1Cl (some centres unmarked) [Example 1.054] | < 100 | < 100
5 | C[C@@H](Nc1nc(N2CCN(C3CCCNC3)CC2)ncc1Cl)c1ccc(Cl)cc1Cl (some centres unmarked) [Example 1.055] | < 100 | < 100
6 | C[C@@H](Nc1nc(C2=CCN([C@H]3CCCN(CCC(N)=O)C3)CC2)ncc1Cl)c1ccc(Cl)cc1Cl [Example 1.056] | < 100 | < 100
7 | C[C@@H](Nc1nc(C2=CCN([C@H]3CCCN(CCC(=O)O)C3)CC2)ncc1Cl)c1ccc(Cl)cc1Cl [Example 1.057] | < 100 | < 100
8 | C[C@@H](Nc1nc(C2=CCN([C@H]3CCCN(CCO)C3)CC2)ncc1Cl)c1ccc(Cl)cc1Cl [Example 1.058] | < 100 | < 100
9 | C[C@@H](Nc1nc(N2CCN(C(=O)N(C)C3CCNC3)CC2)ncc1Cl)c1ccc(Cl)cc1Cl (some centres unmarked) [Example 1.059] | < 100 | < 100
10 | C[C@@H](Nc1nc(N2CCC(NC(=O)[C@H]3CCN(C)C3)CC2)ncc1Cl)c1ccc(Cl)cc1Cl [Example 1.060] | < 100 | < 100
11 | C[C@@H](Nc1nc(N2CCC(NC(=O)[C@H]3CCNC3)CC2)ncc1Cl)c1ccc(Cl)cc1Cl [Example 1.061] | < 100 | < 100
12 | CC(C)N(C(=O)C1CCNC1)C1CCN(c2ncc(Cl)c(N[C@H](C)c3ccc(Cl)cc3Cl)n2)CC1 (some centres unmarked) [Example 1.062] | > 1000 | > 1000
13 | C[C@@H](Nc1nc(N2CCN(C3CCCN(CC(=O)O)C3)CC2)ncc1Cl)c1ccc(Cl)cc1Cl (some centres unmarked) [Example 1.063] | < 100 | < 100
14 | C[C@@H](Nc1nc(N2CCC(N(CCO)C(=O)[C@H]3CCCN3)CC2)ncc1Cl)c1ccc(Cl)cc1Cl [Example 1.064] | < 100 | < 100
15 | CC(Nc1nc(N2CCC(C(=O)N(C)C3CCNC3)CC2)ncc1Cl)c1ccc(Cl)cc1Cl (centres unmarked) [Example 1.065] | < 100 | < 100
16 | C[C@@H](Nc1nc(N2CCN(C(=O)[C@@H]3CCN(C)C3)CC2)ncc1Cl)c1ccc(Cl)cc1Cl [Example 1.066] | < 100 | < 100
17 | C[C@@H](Nc1nc(N2CCC(NC(=O)[C@@H]3CCN(C)C3)CC2)ncc1Cl)c1ccc(Cl)cc1Cl [Example 1.067] | < 100 | 100 to 1000
18 | CNC1CCN(C(=O)C2CCN(c3ncc(Cl)c(N[C@H](C)c4ccc(Cl)cc4Cl)n3)CC2)C1 (some centres unmarked) [Example 1.068] | < 100 | < 100
19 | C[C@@H](Nc1nc(N2CCN(C(=O)[C@H]3C[C@@H](O)CN3)CC2)ncc1Cl)c1ccc(Cl)cc1Cl [Example 1.069] | < 100 | < 100
20 | C[C@@H](Nc1nc(N2CCN(C(=O)[C@@H]3CCNC3)CC2)ncc1Cl)c1ccc(Cl)cc1Cl [Example 1.070] | < 100 | < 100
21 | Cc1cnc(N2CCN(C(=O)[C@H]3CCCN3)CC2)nc1N[C@H](C)c1ccc(Cl)cc1Cl [Example 1.071] | < 100 | < 100
22 | C[C@@H](Nc1nc(N2CCN(C(=O)N(C)CCN(C)C)CC2)ncc1Cl)c1ccc(Cl)cc1Cl [Example 1.072] | < 100 | < 100

Row | Compound | IC50 (CCR4 [1]) [nM] | IC50 (CCR4 [2]) [nM]
23 | C[C@@H](Nc1nc(N2CCN(C(=O)[C@H]3CCC(=O)N3)CC2)ncc1Cl)c1cccc(Cl)c1 [Example 1.075] | > 1000 | 100 to 1000
24 | CC(Nc1nc(N2CCN(C(=O)[C@H]3CCC(=O)N3)CC2)ncc1Cl)c1c(F)cc(Cl)cc1F (some centres unmarked) [Example 1.076] | < 100 | < 100
25 | C[C@@H](Nc1nc(C2CCN(C3CCCN(CCC(=O)O)C3)CC2)ncc1Cl)c1ccc(Cl)cc1Cl (some centres unmarked) [Example 1.077] | < 100 | < 100
26 | C[C@@H]1CN(C(=O)[C@H]2CCC(=O)N2)CCN1c1ncc(Cl)c(N[C@H](C)c2ccc(Cl)cc2Cl)n1 [Example 1.078] | < 100 | < 100
27 | C[C@@H](Nc1nc(N2CCN(C(=O)[C@H]3CCS(=O)(=O)N3)CC2)ncc1Cl)c1ccc(Cl)cc1Cl [Example 1.079] | < 100 | < 100
28 | C[C@@H](Nc1nc(N2CCN(C(=O)[C@H]3CCCN3)CC2)nc(N)c1Cl)c1ccc(Cl)cc1Cl [Example 1.080] | < 100 | < 100
29 | C[C@@H](Nc1nc(N2CCN(C(=O)[C@H]3CCC(=O)N3)C[C@@H]2C)ncc1Cl)c1ccc(Cl)cc1Cl [Example 1.081] | < 100 | < 100
30 | CC(Nc1nc(N2CCN(C(=O)[C@H]3CCC(=O)N3)CC2)ncc1Cl)c1cc(F)c(Cl)cc1Cl (some centres unmarked) [Example 1.082] | < 100 | < 100
31 | C[C@@H](Nc1nc(N2CCN(C(=O)[C@H]3CCC(=O)N3)CC2)ncc1Cl)c1cc(Cl)cc(Cl)c1 [Example 1.083] | > 1000 | > 1000
32 | C[C@H](Nc1nc(N2CCN(C(=O)[C@H]3CCC(=O)N3)CC2)ncc1Cl)c1cc(F)c(Cl)cc1Cl [Example 1.110] | > 1000 | > 1000
33 | Cc1nc(N2CCN(C(=O)[C@H]3CCC(=O)N3)CC2)nc(N[C@H](C)c2ccc(Cl)cc2Cl)c1Cl [Example 1.113] | < 100 | < 100
34 | C[C@@H](Nc1nc(N2CCC(NC(=O)C3CCOCC3)CC2)ncc1Cl)c1ccc(Cl)cc1Cl [Example 1.130] | 100 to 1000 | > 1000
35 | C[C@@H](Nc1nc(N2CCC(NC(=O)[C@@H]3CNCCO3)CC2)ncc1Cl)c1ccc(Cl)cc1Cl [Example 1.131] | 100 to 1000 | > 1000
36 | C[C@@H](Nc1nc(N2CCC(N3CC(=O)NC3=O)CC2)ncc1Cl)c1ccc(Cl)cc1Cl [Example 1.132] | > 1000 | > 1000
37 | C[C@@H](Nc1nc(N2CCC(C(=O)N3CC[C@H](O)[C@@H](N(C)C)C3)CC2)ncc1Cl)c1ccc(Cl)cc1Cl [Example 1.133] | 100 to 1000 | > 1000
38 | C[C@@H](Nc1nc(N2CCN(C(=O)[C@H]3CCN(C(N)=O)C3)CC2)ncc1Cl)c1ccc(Cl)cc1Cl [Example 1.134] | < 100 | < 100
39 | C[C@@H](Nc1nc(N2CCN(C(=O)[C@H]3COCCN3)CC2)ncc1Cl)c1ccc(Cl)cc1Cl [Example 1.135] | < 100 | < 100
40 | C[C@@H](Nc1nc(N2CCC(NC(=O)[C@H]3CC(F)(F)CN3)CC2)ncc1Cl)c1ccc(Cl)cc1Cl [Example 1.136] | > 1000 | > 1000
41 | C[C@@H](Nc1nc(N2CCN(C(=O)[C@H]3CCC(=O)N3)CC2)ncc1Cl)c1ccc(Cl)cc1Cl [Example 1.148] | < 100 | < 100
42 | C[C@@H](Nc1nc(N2CCN(C(=O)[C@H]3CCNC3)CC2)ncc1Cl)c1ccc(Cl)cc1Cl [Example 1.150] | < 100 | < 100
43 | C[C@@H](Nc1nc(N2CCN(C(=O)[C@H]3CCCN3)[C@H](C(=O)O)C2)ncc1Cl)c1ccc(Cl)cc1Cl [Example 1.151] | < 100 | < 100
